Source: patent US20130324412A1, “N-ALKOXYAMIDES OF 6-(SUBSTITUTED PHENYL)-4-AMINOPICOLINATES AND 2-(SUBSTITUTED PHENYL)-6-AMINO-4-PYRIMIDINECARBOXYLATES AND THEIR USE AS SELECTIVE HERBICIDES FOR CROPS” (DOW AGROSCIENCES LLC, priority 2009, published 2013)

Key:
Format in all cases: in vivo
[1] = system: sicklepod (Casia obtusifolia); assay: Postemergence herbicidal activity in corn, sicklepod; conditions: corn test, visual rating after 21 d, probit analysis, dose to kill or control 80 percent
Experimental: (§1) Seeds of corn and the desired weed species were planted in Sun Gro MetroMix 360 planting mixture, which typically has a pH of 6.0 to 6.8 and an organic matter content of about 30 percent, in plastic pots with a surface area of 95 cm^2. When required to ensure good germination and healthy plants, a fungicide treatment and/or other chemical or physical treatment was applied. The plants were grown for 7-21 d in a greenhouse with an approximate 15-h photoperiod which was maintained at about 23-29° C. during the day and 22-28° C. during the night. Nutrients and water were added on a regular basis and supplemental lighting was provided with overhead metal halide 1000-Watt lamps as necessary. The corn plants were utilized for testing when they reached the second true leaf stage. The weed species were utilized at the first or second true leaf stage.
(§2) A weighed amount, determined by the highest rate to be tested, of each test compound was dissolved in 4 mL of a 97:3 v/v mixture of acetone and DMSO to obtain concentrated stock solutions. […] The concentrated stock solutions obtained were diluted with 20 mL of an aqueous mixture containing acetone, water, isopropyl alcohol, DMSO, Atplus 411F crop oil concentrate, and Triton X-155 surfactant in a 48.5:39:10:1.5:1.0:0.02 v/v ratio to obtain spray solutions containing the highest application rates. […]
(§3) The treated plants and control plants were placed in a greenhouse as described above and watered by sub-irrigation to prevent wash-off of the test compounds. After 21 d, the condition of the test plants as compared with that of the untreated plants was determined visually and scored on a scale of 0 to 100 percent where 0 corresponds to no injury and 100 corresponds to complete kill. […]

[2] = system: velvetleaf (Abutilon theophrasti); assay: General postemergence herbicidal activity, velvetleaf; conditions: post-emergence, 336 h, 140 g ai/ha, postemergence, after 14 d, 0 = no injury, 100 = complete kill, read-out: ABUTH % Visual Injury
Outline: (§4)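 Greenhouse plants at first to second true leaf stage sprayed overhead at 187 L/ha in acetone/DMSO with crop oil concentrate and surfactant, at a high rate plus ½× to 1/16× serial dilutions. Injury rated visually after 14 d against solvent-blank controls, 0 (none) to 100% (complete kill).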

[3] = system: corn (Zea mays); assay: Postemergence herbicidal activity in corn, crop; conditions: visual rating after 21 d, probit analysis, dose to kill or control 20 percent
Experimental: as §1, §2, §3

[4] = system: wild buckwheat (Polygonum convululus); assay: Postemergence herbicidal activity in corn, wild buckwheat; conditions: corn test, visual rating after 21 d, probit analysis, dose to kill or control 80 percent
Experimental: as §1, §2, §3

[5] = system: corn (Zea mays); assay: General postemergence herbicidal activity, corn; conditions: post-emergence, 336 h, 140 g ai/ha, postemergence, after 14 d, 0 = no injury, 100 = complete kill, read-out: ZEAMX % Visual Injury
Outline: as §4

[6] = system: wild buckwheat (Polygonum convululus); assay: General postemergence herbicidal activity, wild buckwheat; conditions: post-emergence, 336 h, 140 g ai/ha, postemergence, after 14 d, 0 = no injury, 100 = complete kill, read-out: POLCO % Visual Injury
Outline: as §4

[7] = system: lambsquarters (Chenopodium album); assay: General postemergence herbicidal activity, lambsquarters; conditions: post-emergence, 336 h, 140 g ai/ha, postemergence, after 14 d, 0 = no injury, 100 = complete kill, read-out: CHEAL % Visual Injury
Outline: as §4

[8] = system: lambsquarters (Chenopodium album); assay: Postemergence herbicidal activity in corn, lambsquarters; conditions: corn test, visual rating after 21 d, probit analysis, dose to kill or control 80 percent
Experimental: as §1, §2, §3

[9] = system: pigweed, redroot (Amaranthus retroflexus); assay: Postemergence herbicidal activity in corn, redroot pigweed; conditions: corn test, visual rating after 21 d, probit analysis, dose to kill or control 80 percent
Experimental: as §1, §2, §3

Compound: C=CCONC(=O)c1nc(-c2ccc(Cl)c(OC)c2F)cc(N)c1Cl [Compound 3, N-(2-Propenyloxy)-4-amino-3-chloro-6-(4-chloro-2-fluoro-3-methoxyphenyl)picolinamide]
- CASOB GR80 [1]: 5 g ai/ha
- pest or weed control at 140 g/ha [2]: 100%
- ZEAMX GR20 [3]: >35 g ai/ha
- POLCO GR80 [4]: <4 g ai/ha
- plant injury at 140 g/ha [5]: 0%
- pest or weed control at 140 g/ha [6]: 100%
- pest or weed control at 140 g/ha [7]: 100%
- CHEAL GR80 [8]: <4 g ai/ha
- AMARE GR80 [9]: 5 g ai/ha
